Experimental data taken from patent US20120245137A1 (Zalicus Pharmaceuticals Ltd., priority 2009, published 2012).

Columns and labels:
Assay type in all cases: cell-based
[1] = target: human α1G T-type channels (Homo sapiens, UniProt O43497); assay: T-type calcium channel block, whole cell patch clamp, α1G; settings: HEK cells stably expressing human α1G; mainly non-inactivated protocol; values above 10,000 nM represented as 10000
Description: (§1) T-type calcium channel blocking activity was assayed in human embryonic kidneycells, HEK 293 (Invitrogen), stably transfected with the T-type calcium channel subunits. Briefly, cells were cultured in Dulbecco's modified eagle medium (DMEM) supplemented with 10% fetal bovine serum, 200 U/ml penicillin, and 0.2 mg/mL streptomycin at 37° C. with 5% CO2. At 85% confluency, cells were split with 0.25% trypsin/1 mM EDTA and plated at 10% confluency on glass coverslips. At 12 hours, the medium was replaced, and the cells stably transfected using a standard calcium phosphate protocol and the appropriate calcium channel cDNA's. Fresh DMEM was supplied, and the cells transferred to 28° C./5% CO2.
(§2) Standard patch-clamp techniques were employed to identify blockers of T-type currents. Briefly, previously described HEK cell lines stably expressing human α1G, α1H, and α1I T-type channels were used for all the recordings (passage #: 4-20, 37° C., 5% CO2). Whole cell patch clamp experiments were performed using an Axopatch 200B amplifier (Axon Instruments, Burlingame, Calif.) linked to a personal computer equipped with pCLAMP software. Data were analyzed using Clampfit (Axon Instruments) and SigmaPlot 4.0 (Jandel Scientific). To obtain T-type currents, plastic dishes containing semi-confluent cells were positioned on the stage of a ZEISS AXIOVERT S100 microscope after replacing the culture medium with external solution (Table 2). Whole-cell patches were obtained using pipettes (borosilicate glass with filament, O.D.: 1.5 mm, I.D.: 0.86 mm, 10 cm length), fabricated on a SUTTER P-97 puller with resistance values of ˜5 MΩ (Table 3).
(§3) T-type currents were reliably obtained by using two voltage protocols: • “non-inactivating,” and • “inactivation.”
(§4) Test compounds were dissolved in external solution, 0.1-0.01% DMSO. After ˜10 minutes rest, they were applied by gravity close to the cell using a WPI microfil tubing. The “non-inactivated” pre-pulse was used to examine the resting block of a compound. The “inactivated” protocol was employed to study voltage-dependent block.

[2] = target: human α1H T-type channels (Homo sapiens, UniProt O95180); assay: T-type calcium channel block, whole cell patch clamp, α1H; settings: HEK cells stably expressing human α1H; mainly non-inactivated protocol; values above 10,000 nM represented as 10000
Chain of human α1H T-type channels (O95180 whole entry): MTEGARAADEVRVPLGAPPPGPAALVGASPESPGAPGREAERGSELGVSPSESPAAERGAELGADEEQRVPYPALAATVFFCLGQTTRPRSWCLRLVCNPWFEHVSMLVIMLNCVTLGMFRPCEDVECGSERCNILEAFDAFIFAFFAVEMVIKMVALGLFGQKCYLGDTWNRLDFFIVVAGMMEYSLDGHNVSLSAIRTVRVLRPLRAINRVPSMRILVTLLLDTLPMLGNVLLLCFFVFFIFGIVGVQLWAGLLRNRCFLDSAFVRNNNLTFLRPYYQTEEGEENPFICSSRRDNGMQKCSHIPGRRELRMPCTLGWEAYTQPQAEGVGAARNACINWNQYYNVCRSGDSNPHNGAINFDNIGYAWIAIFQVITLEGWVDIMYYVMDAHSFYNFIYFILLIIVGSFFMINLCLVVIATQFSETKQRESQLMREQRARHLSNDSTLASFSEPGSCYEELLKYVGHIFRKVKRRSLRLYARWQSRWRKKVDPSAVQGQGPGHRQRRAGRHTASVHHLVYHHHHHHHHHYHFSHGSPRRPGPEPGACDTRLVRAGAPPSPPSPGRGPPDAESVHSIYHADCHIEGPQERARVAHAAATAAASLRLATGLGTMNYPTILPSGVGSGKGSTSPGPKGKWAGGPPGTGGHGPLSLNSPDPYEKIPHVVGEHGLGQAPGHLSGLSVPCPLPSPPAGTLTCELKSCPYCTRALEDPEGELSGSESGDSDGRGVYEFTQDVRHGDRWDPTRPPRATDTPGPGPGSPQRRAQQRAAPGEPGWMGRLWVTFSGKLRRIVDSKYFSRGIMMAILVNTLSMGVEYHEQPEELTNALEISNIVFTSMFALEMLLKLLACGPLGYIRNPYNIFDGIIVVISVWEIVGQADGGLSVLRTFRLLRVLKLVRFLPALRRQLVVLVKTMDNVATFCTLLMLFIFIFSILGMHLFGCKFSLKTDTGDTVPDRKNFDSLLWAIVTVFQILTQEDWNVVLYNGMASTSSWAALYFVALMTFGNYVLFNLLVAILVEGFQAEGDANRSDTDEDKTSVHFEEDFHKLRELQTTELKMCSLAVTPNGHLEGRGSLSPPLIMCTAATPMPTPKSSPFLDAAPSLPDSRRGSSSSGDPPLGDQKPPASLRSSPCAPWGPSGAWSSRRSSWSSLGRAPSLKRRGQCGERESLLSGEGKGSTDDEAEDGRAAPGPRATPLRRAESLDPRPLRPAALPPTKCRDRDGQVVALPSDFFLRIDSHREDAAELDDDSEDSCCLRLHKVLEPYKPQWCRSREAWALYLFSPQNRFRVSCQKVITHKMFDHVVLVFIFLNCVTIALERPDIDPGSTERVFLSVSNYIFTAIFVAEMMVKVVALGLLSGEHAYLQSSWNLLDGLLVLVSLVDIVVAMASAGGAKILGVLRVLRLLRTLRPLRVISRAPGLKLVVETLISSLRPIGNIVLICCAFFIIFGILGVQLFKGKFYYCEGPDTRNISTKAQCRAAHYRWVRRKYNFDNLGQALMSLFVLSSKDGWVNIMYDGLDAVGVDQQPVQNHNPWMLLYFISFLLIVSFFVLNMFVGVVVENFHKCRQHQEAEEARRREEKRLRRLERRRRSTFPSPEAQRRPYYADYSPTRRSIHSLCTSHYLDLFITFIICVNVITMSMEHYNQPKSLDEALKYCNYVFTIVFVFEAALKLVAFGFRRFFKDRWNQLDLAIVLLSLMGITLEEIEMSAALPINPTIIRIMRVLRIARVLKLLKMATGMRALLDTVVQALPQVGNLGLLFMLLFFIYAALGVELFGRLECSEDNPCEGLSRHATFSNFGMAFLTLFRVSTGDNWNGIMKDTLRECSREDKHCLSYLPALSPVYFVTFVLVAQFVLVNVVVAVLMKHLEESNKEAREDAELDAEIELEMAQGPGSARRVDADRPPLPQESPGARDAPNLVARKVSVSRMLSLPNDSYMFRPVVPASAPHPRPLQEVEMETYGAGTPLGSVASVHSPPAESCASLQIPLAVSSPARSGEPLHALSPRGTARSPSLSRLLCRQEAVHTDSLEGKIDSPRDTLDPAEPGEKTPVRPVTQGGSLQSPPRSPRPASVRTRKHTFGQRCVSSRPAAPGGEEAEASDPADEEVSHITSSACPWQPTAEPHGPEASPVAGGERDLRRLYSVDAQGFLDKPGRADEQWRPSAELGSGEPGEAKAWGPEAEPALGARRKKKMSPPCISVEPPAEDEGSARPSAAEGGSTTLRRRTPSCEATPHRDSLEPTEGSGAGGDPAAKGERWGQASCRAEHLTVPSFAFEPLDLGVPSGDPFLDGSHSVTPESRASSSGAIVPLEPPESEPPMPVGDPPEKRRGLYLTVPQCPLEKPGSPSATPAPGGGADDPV
Description: as §1, §2, §3, §4

[3] = target: N-type calcium channel subunits (α1B, α2δ, and β3a) (Homo sapiens, UniProt Q00975); assay: Block of Cav2.2 channel, whole cell voltage clamp, manual and PatchXpress; settings: Table 5; table follows Assay Example 3 (whole cell voltage clamp / PatchXpress); assay not given
In short: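 Percent block taken as current amplitude ratio with versus without compound, applied in rising doses; IC50 fitted where one cell received multiple doses. Protocol: 50 ms pulses to +20 mV at 0.067 Hz from […] or −90 mV holding; P/n leak subtraction, no junction-potential correction; manual and PatchXpress recordings.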

Chain of human α1G T-type channels (O43497 whole entry): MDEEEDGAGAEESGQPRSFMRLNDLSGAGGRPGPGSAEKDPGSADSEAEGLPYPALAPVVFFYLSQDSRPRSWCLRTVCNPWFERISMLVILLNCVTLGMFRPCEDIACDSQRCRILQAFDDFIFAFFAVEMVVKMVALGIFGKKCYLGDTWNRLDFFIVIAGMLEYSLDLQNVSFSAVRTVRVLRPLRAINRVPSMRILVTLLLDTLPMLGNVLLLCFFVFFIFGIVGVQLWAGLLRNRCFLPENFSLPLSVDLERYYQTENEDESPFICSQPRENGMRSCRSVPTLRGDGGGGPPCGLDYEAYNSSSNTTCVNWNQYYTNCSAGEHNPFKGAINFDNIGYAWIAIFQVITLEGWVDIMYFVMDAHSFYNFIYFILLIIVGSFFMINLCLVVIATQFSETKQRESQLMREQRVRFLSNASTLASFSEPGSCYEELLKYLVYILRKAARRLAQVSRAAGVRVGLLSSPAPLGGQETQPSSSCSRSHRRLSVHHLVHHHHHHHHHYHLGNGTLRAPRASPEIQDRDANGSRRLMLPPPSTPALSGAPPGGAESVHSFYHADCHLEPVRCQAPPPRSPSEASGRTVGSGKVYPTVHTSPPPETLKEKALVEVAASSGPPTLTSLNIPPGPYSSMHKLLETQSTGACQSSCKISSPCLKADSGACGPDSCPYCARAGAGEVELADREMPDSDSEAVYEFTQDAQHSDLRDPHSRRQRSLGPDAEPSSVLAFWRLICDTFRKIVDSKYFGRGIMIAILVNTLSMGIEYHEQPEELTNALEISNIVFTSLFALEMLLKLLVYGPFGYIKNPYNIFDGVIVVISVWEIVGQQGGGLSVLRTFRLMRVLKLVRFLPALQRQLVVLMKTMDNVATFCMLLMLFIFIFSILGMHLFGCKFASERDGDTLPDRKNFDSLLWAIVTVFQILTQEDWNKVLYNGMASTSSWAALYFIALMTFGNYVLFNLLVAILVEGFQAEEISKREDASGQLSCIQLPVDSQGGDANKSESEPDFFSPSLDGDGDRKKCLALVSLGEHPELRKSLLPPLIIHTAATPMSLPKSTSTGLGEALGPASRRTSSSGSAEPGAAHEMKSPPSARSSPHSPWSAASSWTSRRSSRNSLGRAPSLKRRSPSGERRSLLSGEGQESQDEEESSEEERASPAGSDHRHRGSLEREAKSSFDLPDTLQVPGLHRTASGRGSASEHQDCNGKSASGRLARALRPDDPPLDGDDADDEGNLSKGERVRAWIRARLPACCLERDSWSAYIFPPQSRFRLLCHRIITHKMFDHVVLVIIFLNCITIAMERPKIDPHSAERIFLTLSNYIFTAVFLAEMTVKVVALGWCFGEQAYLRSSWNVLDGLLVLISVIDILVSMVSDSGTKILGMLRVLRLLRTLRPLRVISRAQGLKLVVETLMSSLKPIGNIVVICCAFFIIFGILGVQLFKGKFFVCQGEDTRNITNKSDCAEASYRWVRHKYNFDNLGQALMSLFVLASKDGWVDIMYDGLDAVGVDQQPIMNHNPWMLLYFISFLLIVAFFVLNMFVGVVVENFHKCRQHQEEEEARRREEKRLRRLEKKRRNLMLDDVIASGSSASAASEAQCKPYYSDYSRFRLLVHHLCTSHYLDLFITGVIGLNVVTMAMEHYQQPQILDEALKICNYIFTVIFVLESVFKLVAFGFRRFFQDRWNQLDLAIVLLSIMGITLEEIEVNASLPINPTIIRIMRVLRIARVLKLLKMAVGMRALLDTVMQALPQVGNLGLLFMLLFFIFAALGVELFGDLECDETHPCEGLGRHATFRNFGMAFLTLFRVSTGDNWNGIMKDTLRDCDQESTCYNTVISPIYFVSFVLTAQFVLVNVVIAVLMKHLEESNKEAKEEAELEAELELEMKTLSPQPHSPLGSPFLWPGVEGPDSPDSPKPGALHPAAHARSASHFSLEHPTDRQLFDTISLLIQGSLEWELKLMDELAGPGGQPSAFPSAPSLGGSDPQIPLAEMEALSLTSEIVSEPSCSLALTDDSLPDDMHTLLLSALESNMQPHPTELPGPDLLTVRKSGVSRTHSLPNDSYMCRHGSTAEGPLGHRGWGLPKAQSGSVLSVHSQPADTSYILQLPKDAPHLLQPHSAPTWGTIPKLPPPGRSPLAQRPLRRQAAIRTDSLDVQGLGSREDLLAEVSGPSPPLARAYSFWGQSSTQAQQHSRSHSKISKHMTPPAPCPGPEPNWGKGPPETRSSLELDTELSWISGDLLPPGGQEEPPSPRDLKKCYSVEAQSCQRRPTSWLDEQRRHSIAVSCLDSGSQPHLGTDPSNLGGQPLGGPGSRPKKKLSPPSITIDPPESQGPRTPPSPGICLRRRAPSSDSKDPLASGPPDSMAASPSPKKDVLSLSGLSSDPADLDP

Molecule | IC50 [1] [µM] | IC50 [2] [µM] | IC50 [3] [nM]
1-(trifluoromethyl)-N-((1R,4R)-4- ((3- (trifluoromethyl)phenylsulfonyl) methyl)cyclohexyl) cyclobutanecarboxamide [Compound 109] | > 10 | > 10 | –
O=C(NC[C@H]1C[C@H](S(=O)(=O)c2cccc(C(F)(F)F)c2)C1)c1ccnc(C(F)(F)F)n1 [Compound 362, 2-(trifluoromethyl)-N-(((1R,3R)-3-(3-(trifluoromethyl)phenylsulfonyl)cyclobutyl)methyl)pyrimidine-4-carboxamide] | – | > 10 | 370
COc1cc(C(=O)NC[C@H]2C[C@H](S(=O)(=O)c3cccc(C(F)(F)F)c3)C2)cc(Cl)n1 [Compound 363, 2-chloro-6-methoxy-N-(((1R,3R)-3-(3-(trifluoromethyl)phenylsulfonyl)cyclobutyl)methyl)isonicotinamide] | – | > 10 | 310
O=C(Nc1ccc(Oc2ccc(Cl)cc2)cc1)[C@H]1C[C@H](S(=O)(=O)c2cccc(C(F)(F)F)c2)C1 [Compound 404, (1R,3R)-N-(4-(4-chlorophenoxy)phenyl)-3-(3-(trifluoromethyl)phenylsulfonyl)cyclobutane carboxamide] | – | > 10 | 3330
O=C(CN[C@H]1C[C@H](S(=O)(=O)c2cccc(C(F)(F)F)c2)C1)NC1CCC(F)(F)CC1 [Compound 428, N-(4,4-ditluorocyclohexyl)-2-((1R,3R)-3-(3-(trifluoromethyl)phenylsulfonyl)cyclobutylamino) acetamide] | – | > 10 | 960
CC([C@H]1C[C@H](NC(=O)c2ccc(F)c(C(F)(F)F)c2)C1)S(=O)(=O)c1cccc(C(F)(F)F)c1 (stereo partly drawn) [Compound 433, 4-fluoro-3-(trifluoromethyl)-N-((1R,3R)-3-((R)-1-(3-(trifluoromethyl)phenylsulfonyl)ethyl)cyclobutyl)benzamide] | – | > 10 | 220

The next lines start with the values.

IC50 [1] [µM] | IC50 [2] [µM] | IC50 [3] [nM] | Molecule
3.67 | 3.5 | – | O=C(N[C@H]1CC[C@H](CS(=O)(=O)c2cccc(C(F)(F)F)c2)CC1)c1cc(F)cc(Cl)c1 [Compound 101, 3-chloro-5-fluoro-N-((1R,4R)-4-((3-(trifluoromethyl)phenylsulfonyl)methyl)cyclohexyl)benzamide]
> 10 | 2.48 | – | O=C(N[C@H]1CC[C@H](CS(=O)(=O)c2cccc(C(F)(F)F)c2)CC1)C1CCOCC1 [Compound 105, N-((1R,4R)-4-((3-(trifluoromethyl)phenylsulfonyl)methyl)cyclohexyl)tetrahydro-2H-pyran-4-carboxamide]
> 10 | 8.36 | – | O=C(N[C@H]1CC[C@H](CS(=O)(=O)c2cccc(C(F)(F)F)c2)CC1)c1cc(C(F)(F)F)n[nH]1 [Compound 112, 3-(trifluoromethyl)-N-((lR,4R)-4-((3-(trifluoromethyI)phenylsulfonyl)methyl)cyclohexyl)-1H-pyrazole-5-carboxamide]
– | 1.48 | 330 | O=C(N[C@H]1CC[C@@](F)(S(=O)(=O)c2cc(F)cc(C(F)(F)F)c2)CC1)c1cc(F)cc(Cl)c1 [Compound 326, 3-chloro-5-fluoro-N-((1S,4S)-4-fluoro-4-(3-fluoro-5-(trifluoromethyl)phenylsulfonyl)cyclohexyl) benzamide]
– | > 10 | 1470 | COc1cc(C(=O)NC[C@H]2C[C@@H](S(=O)(=O)c3cccc(C(F)(F)F)c3)C2)cc(Cl)n1 [Compound 380, 2-chloro-6-methoxy-N-(((1S,3S)-3-(3-(trifluoromethyl)phenylsulfonyl)cyclobutyl)methyl)isonicotinamide]
– | > 10 | 590 | O=C(NC[C@H]1C[C@@H](S(=O)(=O)c2cccc(C(F)(F)F)c2)C1)c1cc(F)cc(Cl)c1 [Compound 381, 3-chloro-5-fluoro-N-(((1S,3S)-3-(3-(trifluoromethyl)phenylsulfonyl)cyclobutyl)methyl)benzamide]
